Measurements: patent EP1377579B1 (Aventis Pharmaceuticals Inc., priority 2000, dated 2002)
Structures can show the parent of a compound that is named as a salt. Where two headings read alike, the source gives them in different places.

What was measured:
[1] = target: cdk4/cyclin D1 (Homo sapiens, UniProt P11802); test: Cyclin-dependent kinase assay, cdk4/cyclin D1; format: biochemical; settings: cyclin D1/cdk4; GST-pRb substrate, 10 µM ATP
[2] = test system: MDA-MB-435; test: In vitro proliferation assay (MTT), MDA-MB-435; format: cell-based, human; settings: Homo sapiens
Procedure, shortened: (§1)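 MTT viability, 3 d compound treatment; seeding 1000–2500 cells/well, overnight attachment; formazan in DMSO, A570; IC50 fitted from raw absorbance.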

[3] = test system: NCI-H460; test: In vitro proliferation assay (MTT), NCI-H460; format: cell-based; settings: Homo sapiens
Experimental: (§2) The proliferation of tumor cells can be measured using a tetrazolium salt-based assay known as the MTT (3-[4,5-Dimethylthiazol-2-yl]-2,5-diphenyltetrazolium bromide) assay. The proliferation test is performed essentially as described by Carmichael et al., Cancer Res. 47: 936-942, 1987. For the assay, the cell lines are plated onto 96 well plates at 1000 to 2500 cells/well (depending on the properties of the individual cell lines), left to attach and recover overnight. […] After 3 days, the cells are incubated with MTT dye (3-[4,5-Dimethylthiazol-2-yl]-2,5-diphenyltetrazolium bromide, Sigma # M5655, 10 mg/ml in Hank's Buffered Saline) to estimate the amount of live cells remaining vs. concentration for the test compounds. Specifically, MTT solution is added to a final concentration of […] and the plates incubated at 37 C for 2 to 4 hr. The MTT and culture medium is then removed from the cultures and 200 µl of DMSO is added to solubilize the dye from the cell layer. The absorbance at 570 nm is determined for each culture using a Spectramax plate reader (Molecular Devices).
(§3) IC50s were determined from the raw data from either the MTT or SRB assays.
(§4) All of the cell lines were obtained from American Type Tissue Collection, with the ATCC accession number in parentheticals. MCF-7 and MDA-MB-231 cells were grown in improved minimum essential medium (Biofluids) without phenol red, supplemented with 5 % fetal bovine serum, 0.01 mg/ml gentamicin and 3 mM L-glutamine. All of the other cell lines were grown in RPMI 1640 medium (Life Technologies) supplemented with 5 % fetal bovine serum, 0.01 mg/ml gentamicin and 3 mM L-glutamine TABLE 3

[4] = test system: HL-60; test: In vitro proliferation assay (MTT), HL-60; format: cell-based; settings: Homo sapiens
Experimental: as §2, §3, §4

[5] = test system: Jurkat; test: In vitro proliferation assay (MTT), Jurkat; format: cell-based; settings: Homo sapiens, read-out: Jurkat Leuk. (IC50 µM)
Experimental: as §2, §3, §4

[6] = test system: PC-3; test: In vitro proliferation assay (MTT), PC-3; format: cell-based, human; settings: Homo sapiens
Procedure, shortened: as §1

[7] = test system: Colo-205; test: In vitro proliferation assay (MTT), Colo-205; format: cell-based; settings: Homo sapiens
Experimental: as §2, §3

[8] = target: cdk1/cyclin B (Homo sapiens, UniProt P06493); test: Cyclin-dependent kinase assay, cdk1/cyclin B; settings: CDK1 IC50, nM, Histone H1, 10 µM ATP
[9] = target: cdk2/cyclin E (Homo sapiens, UniProt P24941); test: Cyclin-dependent kinase assay, cdk2/cyclin E; settings: CDK2 IC50, nM, GST-pRb substrate, 10 µM ATP
Experimental: The insect cell (Sf9) expression is optimized for each of the CDK/cyclin pairs according to the manufacturer's protocols (Life Technologies).
The viruses are added to the cells and the culture is incubated at 27°C for the desired time. The cells are harvested by centrifugation at 3000 rpm for 10 minutes. The cells are snap frozen on dry ice and stored at - 80°C.
Cell extracts are made following a standard procedure. The cell pellet is resuspended in lysis buffer (50 mM HEPES, pH 8.0, 10 mM MgCl2, 1 mM DTT, 2.5 mM EGTA, 1 mM EDTA, 10 mM β-glycerophosphate, 1 mM sodium vanadate, 1 mM sodium fluoride, 1 x Protease inhibitor cocktail). The cells are lysed using the microfluidizer (Microfluidics) for 20 minutes. Cell debris is removed by centrifugation at 100,000 x g. The cell extracts are aliquoted in 1 ml aliquots, frozen on dry ice, and stored at -80°C.
The kinase reactions are performed following a standard procedure. The enzyme and inhibitor are diluted in kinase buffer (50 mM HEPES, pH 8.0, 10 mM MgCl2, 2.5 mM EGTA, 10 mM β-glycerophosphate, 1 mM sodium vanadate, 1 mM sodium fluoride, and 1 mM DTT) and pre-incubated for 30 minutes. The cdk2 and cdk4 enzyme activities are assayed using 500 ng of the GST-pRb substrate (see description below) in the presence of 10 µM cold ATP and 1 µCi of [γ-^33P] ATP for 30 minutes at room temperature. […] The reactions are terminated by the addition of 50 µL of 10 mM cold ATP to stop the reactions. The reactions are transferred to a pre-soaked 96-well multi-screen plate containing 30 µL of 100% TCA per well. After incubation for one hour at room temperature, the plates are washed twice with 200 µl of 20% TCA, followed by 200 µl of 10% TCA and finally with 200 µl of 5% TCA. After drying the plates at room temperature, the filter plates are placed in adapter plates (Packard) and 40 µl of Microscint-O® (Packard) is added to each well.

[10] = MDA-MB-435, MTT assay, value (SD, n) where given, read-out: MB-435 Breast (IC50 µM)
[11] = NCI-H460, MTT assay, value (SD, n) where given, read-out: H-460 Lung (IC50 µM)
[12] = HL-60, MTT assay, value (SD, n) where given, read-out: HL-60 Leuk. (IC50 µM)
[13] = MTT assay, value (SD, n) where given
[14] = PC-3, MTT assay, value (SD, n) where given, read-out: PC-3 Prostate (IC50 µM)
[15] = COLO 205, MTT assay, value (SD, n) where given, read-out: Colo-205 Colon (IC50 µM)

Chain of cdk4/cyclin D1 (P11802 whole entry): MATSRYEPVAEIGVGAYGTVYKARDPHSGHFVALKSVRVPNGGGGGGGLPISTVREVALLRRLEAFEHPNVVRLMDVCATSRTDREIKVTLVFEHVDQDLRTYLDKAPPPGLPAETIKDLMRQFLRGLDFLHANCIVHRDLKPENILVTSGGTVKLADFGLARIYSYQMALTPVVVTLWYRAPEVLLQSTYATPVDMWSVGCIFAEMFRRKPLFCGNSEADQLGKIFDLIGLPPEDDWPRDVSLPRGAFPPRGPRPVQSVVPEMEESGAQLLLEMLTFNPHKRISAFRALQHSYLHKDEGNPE
Chain of cdk4/cyclin D1 (P24385 whole entry partner): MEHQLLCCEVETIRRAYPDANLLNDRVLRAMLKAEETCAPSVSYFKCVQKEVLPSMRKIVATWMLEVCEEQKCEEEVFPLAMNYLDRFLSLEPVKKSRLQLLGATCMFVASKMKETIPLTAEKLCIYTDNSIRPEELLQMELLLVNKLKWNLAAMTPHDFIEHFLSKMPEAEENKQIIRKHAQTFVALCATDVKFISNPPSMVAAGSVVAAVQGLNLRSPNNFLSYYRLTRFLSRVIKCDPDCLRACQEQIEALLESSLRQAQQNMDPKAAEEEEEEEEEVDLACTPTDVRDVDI
Chain of cdk1/cyclin B (P06493 whole entry): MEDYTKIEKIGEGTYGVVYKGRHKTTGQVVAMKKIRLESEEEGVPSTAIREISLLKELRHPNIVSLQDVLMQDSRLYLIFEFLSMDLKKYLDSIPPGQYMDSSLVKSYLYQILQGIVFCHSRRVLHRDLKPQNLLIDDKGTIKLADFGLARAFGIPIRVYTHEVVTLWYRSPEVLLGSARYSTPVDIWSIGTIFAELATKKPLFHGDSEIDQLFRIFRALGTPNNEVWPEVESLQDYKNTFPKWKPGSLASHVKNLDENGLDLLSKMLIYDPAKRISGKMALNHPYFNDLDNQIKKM
Chain of cdk1/cyclin B (P14635 whole entry partner): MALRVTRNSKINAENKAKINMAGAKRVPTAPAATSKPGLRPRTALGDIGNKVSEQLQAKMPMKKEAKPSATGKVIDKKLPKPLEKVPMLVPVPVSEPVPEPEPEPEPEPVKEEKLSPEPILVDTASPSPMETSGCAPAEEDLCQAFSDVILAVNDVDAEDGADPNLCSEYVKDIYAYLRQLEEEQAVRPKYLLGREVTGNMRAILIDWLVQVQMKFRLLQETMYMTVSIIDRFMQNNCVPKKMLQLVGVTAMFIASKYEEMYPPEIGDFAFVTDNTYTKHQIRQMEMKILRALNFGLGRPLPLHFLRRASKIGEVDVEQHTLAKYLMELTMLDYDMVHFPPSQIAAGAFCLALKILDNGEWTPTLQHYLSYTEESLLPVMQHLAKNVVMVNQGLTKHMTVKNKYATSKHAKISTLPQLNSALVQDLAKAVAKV

N[C@H]1CC[C@H](Nc2nc(NC3CCN(C(=O)NC45CC6CC(CC(C6)C4)C5)CC3)c3ncn(C4CCCC4)c3n2)CC1 (relative stereo) [compound 181, trans-4-[2-(4-Amino-cyclohexylamino)-9-cyclopentyl-9H-purin-6-ylamino]-piperidine-1-carboxylic acid adamantan-1-ylamide dihydrochloride]
IC50 [1]: 1300 nM
IC50 [2, 10]: 0.24 µM
IC50 [3, 11]: 0.29 µM
IC50 [4, 12]: 0.06 µM
IC50 [5, 13]: 0.33 µM
IC50 [6, 14]: 0.25 µM
IC50 [7, 15]: 0.04 µM
IC50 [8]: 67 nM
IC50 [9]: 548 nM

CCCCOC(=O)N1CCC(Nc2nc(N[C@H]3CC[C@H](N)CC3)nc3c2ncn3C2CCCC2)CC1 [compound 92, trans-4-[2-(4-Amino-cyclohexylamino)-9-cyclopentyl-9H-purin-6-ylamino]-piperidine-1-carboxylic acid butyl ester dihydrochloride]
IC50 [1]: 2100 nM
IC50 [2, 10]: 0.33 µM
IC50 [3, 11]: 0.2 µM
IC50 [4, 12]: 0.07 µM
IC50 [5, 13]: 0.25 µM
IC50 [6, 14]: 0.2 µM
IC50 [7, 15]: 0.2 µM
IC50 [8]: 45 nM
IC50 [9]: 18 nM

CCOC(=O)N1CCC(Nc2nc(N[C@H]3CC[C@H](N)CC3)nc3c2ncn3C2CCCC2)CC1 [compound 93, trans-4-[2-(4-Amino-cyclohexylamino)-9-cyclopentyl-9H-purin-6-ylamino]-piperidine-1-carboxylic acid ethyl ester dihydrochloride]
IC50 [1]: 856 nM
IC50 [2, 10]: 0.25 µM
IC50 [3, 11]: 0.2 µM
IC50 [4, 12]: 0.07 µM
IC50 [5, 13]: 0.16 µM
IC50 [6, 14]: 0.26 µM
IC50 [7, 15]: 0.18 µM
IC50 [8]: 46 nM
IC50 [9]: 5 nM

N[C@H]1CC[C@H](Nc2nc(NC3CCN(C(=O)OCc4ccc([N+](=O)[O-])cc4)CC3)c3ncn(C4CCCC4)c3n2)CC1 [compound 94, trans-4-[2-(4-Amino-cyclohexylamino)-9-cyclopentyl-9H-purin-6-ylamino]-piperidine-1-carboxylic acid 4-nitro-benzyl ester dihydrochloride]
IC50 [1]: 827 nM
IC50 [2, 10]: 0.14 µM
IC50 [3, 11]: 0.14 µM
IC50 [4, 12]: 0.06 µM
IC50 [5, 13]: 0.18 µM
IC50 [6, 14]: 0.13 µM
IC50 [7, 15]: 0.07 µM
IC50 [8]: 27 nM
IC50 [9]: 69 nM

C=CCOC(=O)N1CCC(Nc2nc(N[C@H]3CC[C@H](N)CC3)nc3c2ncn3C2CCCC2)CC1 [compound 95, trans-4-[2-(4-Amino-cyclohexylamino)-9-cyclopentyl-9H-purin-6-ylamino]-piperidine-1-carboxylic acid allyl ester dihydrochloride]
IC50 [1]: 526 nM
IC50 [2, 10]: 0.24 µM
IC50 [3, 11]: 0.2 µM
IC50 [4, 12]: 0.06 µM
IC50 [5, 13]: 0.18 µM
IC50 [6, 14]: 0.21 µM
IC50 [7, 15]: 0.1 µM
IC50 [8]: 75 nM
IC50 [9]: 23 nM

N[C@H]1CC[C@H](Nc2nc(NC3CCN(C(=O)Oc4ccccc4[N+](=O)[O-])CC3)c3ncn(C4CCCC4)c3n2)CC1 [compound 99, trans-4-[2-(4-Amino-cyclohexylamino)-9-cyclopentyl-9H-purin-6-ylamino]-piperidine-1-carboxylic acid 2-nitro-phenyl ester dihydrochloride]
IC50 [1]: 1520 nM
IC50 ([2]; MDA-MB-435, read-out: MB-435 Breast (IC50 µM)): 0.12 µM
IC50 ([3]; NCI-H460, read-out: H-460 Lung (IC50 µM)): 0.16 µM
IC50 ([4]; HL-60, read-out: HL-60 Leuk. (IC50 µM)): < 0.02 µM
IC50 [5]: 0.11 µM
IC50 ([6]; PC-3, read-out: PC-3 Prostate (IC50 µM)): 0.2 µM
IC50 ([7]; COLO 205, read-out: Colo-205 Colon (IC50 µM)): 0.05 µM
IC50 [8]: 33 nM
IC50 [9]: 9 nM

C=CCCOC(=O)N1CCC(Nc2nc(N[C@H]3CC[C@H](N)CC3)nc3c2ncn3C2CCCC2)CC1 [compound 100, trans-4-[2-(4-Amino-cyclohexylamino)-9-cyclopentyl-9H-purin-6-ylamino]-piperidine-1-carboxylic acid but-3-enyl ester dihydrochloride]
IC50 [2, 10]: 0.25 µM
IC50 [3, 11]: 0.17 µM
IC50 [4, 12]: 0.05 µM
IC50 [5, 13]: 0.19 µM
IC50 [6, 14]: 0.22 µM
IC50 [7, 15]: 0.11 µM
IC50 [8]: 60 nM
IC50 [9]: 50 nM

C#CCOC(=O)N1CCC(Nc2nc(N[C@H]3CC[C@H](N)CC3)nc3c2ncn3C2CCCC2)CC1 [compound 102, trans-4-[2-(4-Amino-cyclohexylamino)-9-cyclopentyl-9H-purin-6-ylamino]-piperidine-1-carboxylic acid prop-2-ynyl ester dihydrochloride]
IC50 [1]: 926 nM
IC50 [2, 10]: 0.19 µM
IC50 [3, 11]: 0.2 µM
IC50 [4, 12]: < 0.02 µM
IC50 [5, 13]: 0.11 µM
IC50 [6, 14]: 0.14 µM
IC50 [7, 15]: 0.14 µM
IC50 [8]: 31 nM
IC50 [9]: 42 nM

N[C@H]1CC[C@H](Nc2nc(NC3CCN(S(=O)(=O)c4cc(Cl)cc(Cl)c4O)CC3)c3ncn(C4CCCC4)c3n2)CC1 [compound 117, trans-2-{4-[2-(4-Amino-cyclohexylamino)-9-cyclopentyl-9H-purin-6-ylamino]-piperidine-1-sulfonyl}-4,6-dichloro-phenol dihydrochloride]
IC50 [1]: 558 nM
IC50 [2, 10]: 39 µM
IC50 [4, 12]: 24.2 µM
IC50 [5, 13]: 43.6 µM
IC50 [6, 14]: 34.1 µM
IC50 [8]: 290 nM
IC50 [9]: 31 nM

N[C@H]1CC[C@H](Nc2nc(NC3CCN(S(=O)(=O)c4ccc([N+](=O)[O-])cc4)CC3)c3ncn(C4CCCC4)c3n2)CC1 [compound 120, trans-N^2-(4-Amino-cyclohexyl)-9-cyclopentyl-N^6-[1-(4-nitro-benzenesulfonyl)-piperidin-4-yl]-9H-purine-2,6-diamine dihydrochloride]
IC50 [2, 10]: 0.2 µM
IC50 [3, 11]: 0.27 µM
IC50 [4, 12]: < 0.02 µM
IC50 [5, 13]: 0.19 µM
IC50 [6, 14]: 0.22 µM
IC50 [7, 15]: 0.1 µM

N[C@H]1CC[C@H](Nc2nc(NC3CCN(S(=O)(=O)c4cccc5ccccc45)CC3)c3ncn(C4CCCC4)c3n2)CC1 [compound 123, trans-N^2-(4-Amino-cyclohexyl)-9-cyclopentyl-N^6-[1-(naphthalene-1-sulfonyl)-piperidin-4-yl]-9H-purine-2,6-diamine dihydrochloride]
IC50 [1]: 49 nM
IC50 [2, 10]: 0.26 µM
IC50 [3, 11]: 0.29 µM
IC50 [4, 12]: 0.15 µM
IC50 [5, 13]: 0.22 µM
IC50 [6, 14]: 0.2 µM
IC50 [7, 15]: 0.07 µM
IC50 [8]: 62 nM
IC50 [9]: 54 nM

N[C@H]1CC[C@H](Nc2nc(NC3CCN(C(=O)Nc4ccc(F)cc4F)CC3)c3ncn(C4CCCC4)c3n2)CC1 [compound 166, trans-4-[2-(4-Amino-cyclohexylamino)-9-cyclopentyl-9H-purin-6-ylamino]-piperidine-1-carboxylic acid (2,4-difluoro-phenyl)-amide dihydrochloride]
IC50 [2, 10]: 0.03 µM
IC50 [3, 11]: 0.08 µM
IC50 [4, 12]: 0.01 µM
IC50 [5, 13]: 0.07 µM
IC50 [6, 14]: 0.06 µM
IC50 [7, 15]: 0.02 µM

N[C@H]1CC[C@H](Nc2nc(NC3CCN(C(=O)Nc4ccccc4Br)CC3)c3ncn(C4CCCC4)c3n2)CC1 [compound 168, trans-4-[2-(4-Amino-cyclohexylamino)-9-cyclopentyl-9H-purin-6-ylamino]-piperidine-1-carboxylic acid (2-bromo-phenyl)-amide dihydrochloride]
IC50 [1]: 111 nM
IC50 [2, 10]: 0.15 µM
IC50 [3, 11]: 0.19 µM
IC50 [4, 12]: 0.04 µM
IC50 [6, 14]: 0.19 µM
IC50 [7, 15]: 0.16 µM
IC50 [8]: 29 nM
IC50 [9]: 52 nM
